In patent publication US11339130B1 (Blade Therapeutics, Inc., priority 2016, dated 2022):
Like-named read-outs stand apart in the source and are kept apart here.

What was measured:
Human Calpain 1/NS1 = target: T1, Human Calpain 1/NS1 (Homo sapiens, UniProt P07384); assay: Calpain inhibition continuous fluorescence (FRET) assay, Human Calpain 1/NS1; type: biochemical; details: read-out: Human Calpain 1/NS1 IC50
T1 sequence (P07384 1-714): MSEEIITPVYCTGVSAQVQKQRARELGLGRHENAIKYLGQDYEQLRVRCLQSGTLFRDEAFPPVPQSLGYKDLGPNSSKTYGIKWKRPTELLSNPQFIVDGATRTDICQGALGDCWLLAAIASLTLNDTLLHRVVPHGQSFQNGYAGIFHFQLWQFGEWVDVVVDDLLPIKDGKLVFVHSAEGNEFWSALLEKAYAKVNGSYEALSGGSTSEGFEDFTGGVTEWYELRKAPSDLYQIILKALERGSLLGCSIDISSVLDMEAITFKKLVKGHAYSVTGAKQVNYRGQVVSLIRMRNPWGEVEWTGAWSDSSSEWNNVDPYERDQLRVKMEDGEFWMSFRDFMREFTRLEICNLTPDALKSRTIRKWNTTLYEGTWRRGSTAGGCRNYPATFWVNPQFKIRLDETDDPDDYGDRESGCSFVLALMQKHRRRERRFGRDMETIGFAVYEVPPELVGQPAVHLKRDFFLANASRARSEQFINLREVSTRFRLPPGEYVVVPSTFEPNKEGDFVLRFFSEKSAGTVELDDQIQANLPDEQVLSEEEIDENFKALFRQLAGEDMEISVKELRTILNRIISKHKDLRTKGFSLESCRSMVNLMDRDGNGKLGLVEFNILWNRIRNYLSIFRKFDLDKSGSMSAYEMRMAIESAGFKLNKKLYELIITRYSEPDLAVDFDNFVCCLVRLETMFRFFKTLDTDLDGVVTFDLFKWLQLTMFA
T1 sequence (P04632 1-268 partner): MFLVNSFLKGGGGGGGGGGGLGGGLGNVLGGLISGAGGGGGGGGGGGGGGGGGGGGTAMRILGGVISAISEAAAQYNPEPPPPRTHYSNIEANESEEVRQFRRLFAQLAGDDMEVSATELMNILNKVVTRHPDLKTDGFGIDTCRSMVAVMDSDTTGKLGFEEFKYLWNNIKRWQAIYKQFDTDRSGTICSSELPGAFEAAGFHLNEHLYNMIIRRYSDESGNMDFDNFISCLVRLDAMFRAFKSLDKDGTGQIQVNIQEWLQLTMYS
Summary of the method: (§1)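 Inhibitors were preincubated with calpain in 50 mM Tris pH 7.5, 100 mM NaCl, 1 mM DTT at 25C. Reactions were started with 5-FAM/QXL 520 FRET peptide substrate plus CaCl2 and read at 490/520 nm for 10 min. IC50s came from 4-parameter fits of slope rates (1-5 min).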

Human Calpain 2/NS1 = target: T2, Human Calpain 2/NS1 (Homo sapiens, UniProt P17655); assay: Calpain inhibition continuous fluorescence (FRET) assay, Human Calpain 2/NS1; type: biochemical; details: read-out: Human Calpain 2/NS1 IC50
T2 sequence (P17655 1-700): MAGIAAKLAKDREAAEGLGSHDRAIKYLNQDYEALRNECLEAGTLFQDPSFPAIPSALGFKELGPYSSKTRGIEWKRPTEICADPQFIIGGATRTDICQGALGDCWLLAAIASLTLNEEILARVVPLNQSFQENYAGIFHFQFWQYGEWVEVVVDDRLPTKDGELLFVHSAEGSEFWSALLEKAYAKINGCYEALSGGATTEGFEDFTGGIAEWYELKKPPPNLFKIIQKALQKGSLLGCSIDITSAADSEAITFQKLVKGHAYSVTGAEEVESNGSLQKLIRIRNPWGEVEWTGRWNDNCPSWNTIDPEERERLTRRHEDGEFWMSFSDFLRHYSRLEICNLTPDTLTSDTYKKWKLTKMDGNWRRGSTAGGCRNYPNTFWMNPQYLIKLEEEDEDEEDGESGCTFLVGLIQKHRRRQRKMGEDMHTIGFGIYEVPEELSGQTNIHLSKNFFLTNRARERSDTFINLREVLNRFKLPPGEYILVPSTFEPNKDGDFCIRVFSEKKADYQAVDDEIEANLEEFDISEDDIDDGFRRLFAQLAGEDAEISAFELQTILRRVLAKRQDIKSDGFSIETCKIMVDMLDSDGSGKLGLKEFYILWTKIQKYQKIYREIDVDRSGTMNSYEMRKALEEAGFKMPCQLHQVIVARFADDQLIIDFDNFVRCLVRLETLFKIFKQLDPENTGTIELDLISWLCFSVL
T2 sequence (P04632 1-268 partner): T1 sequence (P04632 1-268 partner)
Summary of the method: as §1

[1] = system: Calpain activity in SH-SY5Y cells; assay: SH-SY5Y + AMC fluorescence assay (Suc-LLVY-AMC substrate); type: cell-based; details: read-out: SH-SY5Y + AMC IC50
Human Calpain 9/NS1 = target: T3, Human Calpain 9/NS1 (Homo sapiens, UniProt O14815); assay: Calpain inhibition continuous fluorescence (FRET) assay, Human Calpain 9/NS1; type: biochemical; details: read-out: Human Calpain 9/NS1 IC50
T3 sequence (O14815 1-690): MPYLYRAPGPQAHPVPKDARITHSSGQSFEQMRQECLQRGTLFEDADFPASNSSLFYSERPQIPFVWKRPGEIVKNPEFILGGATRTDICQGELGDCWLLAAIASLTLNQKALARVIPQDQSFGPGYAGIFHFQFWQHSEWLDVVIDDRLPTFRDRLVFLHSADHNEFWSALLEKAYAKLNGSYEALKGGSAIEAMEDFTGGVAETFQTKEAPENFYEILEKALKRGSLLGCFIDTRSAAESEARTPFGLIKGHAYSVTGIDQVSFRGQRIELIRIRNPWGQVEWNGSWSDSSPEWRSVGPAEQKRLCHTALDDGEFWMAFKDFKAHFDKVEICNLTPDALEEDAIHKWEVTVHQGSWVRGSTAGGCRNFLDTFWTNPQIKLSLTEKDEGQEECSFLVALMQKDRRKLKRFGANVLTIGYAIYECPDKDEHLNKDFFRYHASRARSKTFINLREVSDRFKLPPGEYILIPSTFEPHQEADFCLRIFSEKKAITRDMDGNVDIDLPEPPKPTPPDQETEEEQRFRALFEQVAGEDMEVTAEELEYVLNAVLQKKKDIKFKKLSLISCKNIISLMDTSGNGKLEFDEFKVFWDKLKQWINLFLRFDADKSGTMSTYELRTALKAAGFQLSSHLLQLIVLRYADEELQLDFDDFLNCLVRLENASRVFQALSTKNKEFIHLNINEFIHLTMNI
T3 sequence (P04632 1-268 partner): T1 sequence (P04632 1-268 partner)
Summary of the method: as §1

Compound	IC50 (Human Calpain 1/NS1; Column A) [µM]	IC50 (Human Calpain 2/NS1; Column B) [µM]	IC50 ([1]; Column E) [µM]	IC50 (Human Calpain 9/NS1; Column C) [µM]	IC50 (Human Calpain 1/NS1) [µM]	IC50 (Human Calpain 2/NS1) [µM]	IC50 [1] [µM]	IC50 (Human Calpain 9/NS1) [µM]
NC(=O)C(=O)[C@H](Cc1ccccc1)NC(=O)c1cc(Cl)sc1-c1ccccc1 [Compound 271, (S)—N-(4-amino-3,4-dioxo-1-phenylbutan-2-yl)-5-chloro-2-phenylthiophene-3-carboxamide]	< 3	< 3	> 25	< 3				
NC(=O)C(=O)[C@H](Cc1ccccc1)NC(=O)c1cc(Cl)nn1-c1ccccc1 [Compound 281, (S)—N-(4-amino-3,4-dioxo-1-phenylbutan-2-yl)-3-chloro-1-phenyl-1H-pyrazole-5-carboxamide]	< 3	< 3	10 to 25	< 3				
C[C@@H]1C[C@@H](C(=O)NC(Cc2ccccc2)C(=O)C(N)=O)N(c2ccccc2)C1 (stereo partly drawn) [Compound 292, (2S,4R)—N-(4-amino-3,4-dioxo-1-phenylbutan-2-yl)-4-methyl-1-phenylpyrrolidine-2-carboxamide]	< 3	< 3	> 25	< 3				
NC(=O)C(=O)[C@H](Cc1ccccc1)NC(=O)c1cc(C(F)(F)F)nn1-c1ccccc1 [Compound 305, (S)—N-(4-amino-3,4-dioxo-1-phenylbutan-2-yl)-1-phenyl-3-(trifluoromethyl)-1H-pyrazole-5-carboxamide]					< 3	< 3	< 10	< 3
NC(=O)C(=O)[C@H](Cc1ccccc1)NC(=O)c1cc(C2CC2)nn1-c1ccccc1 [Compound 306, (S)—N-(4-amino-3,4-dioxo-1-phenylbutan-2-yl)-3-cyclopropyl-1-phenyl-1H-pyrazole-5-carboxamide]					3 to 10	3 to 10	< 10	3 to 10
NC(=O)C(=O)[C@H](Cc1ccccc1)NC(=O)[C@@H]1CCCN1c1ccccc1 [Compound 308, (S)—N—((S)-4-amino-3,4-dioxo-1-phenylbutan-2-yl)-1-phenylpyrrolidine-2-carboxamide]					< 3	< 3	> 25	< 3
NC(=O)C(=O)[C@H](Cc1ccccc1)NC(=O)c1conc1-c1cccc(F)c1 [Compound 323, (S)—N-(4-amino-3,4-dioxo-1-phenylbutan-2-yl)-3-(3-fluorophenyl)isoxazole-4-carboxamide]					< 3	< 3	> 25	< 3
COCCOCCNC(=O)C(=O)[C@H](Cc1ccccc1)NC(=O)c1cn(C)nc1-c1ccccc1 [Compound 335, (S)—N-(4-((2-(2-methoxyethoxy)ethyl)amino)-3,4-dioxo-1-phenylbutan-2-yl)-1-methyl-3-phenyl-1H-pyrazole-4-carboxamide]					< 3	< 3	< 10	< 3
CNC(=O)CNC(=O)C(=O)[C@H](Cc1ccccc1)NC(=O)c1cn(C)nc1-c1ccccc1 [Compound 336, (S)-1-methyl-N-(4-((2-(methylamino)-2-oxoethyl)amino)-3,4-dioxo-1-phenylbutan-2-yl)-3-phenyl-1H-pyrazole-4-carboxamide]					< 3	< 3	< 10	< 3
Cc1nc(-c2ccccc2)c(C(=O)N[C@@H](Cc2ccc(OS(=O)(=O)C(F)(F)F)cc2)C(=O)C(N)=O)o1 [Compound 355]					< 3	< 3	10 to 25	< 3
Cc1ccccc1-c1nc(C(F)(F)F)oc1C(=O)NC(Cc1ccccc1)C(=O)C(N)=O (centres unmarked) [Compound 359, N-(4-amino-3,4-dioxo-1-phenylbutan-2-yl)-4-(o-tolyl)-2-(trifluoromethyl)oxazole-5-carboxamide]					< 3	< 3	10 to 25	< 3
Cc1cccc(-c2nsnc2C(=O)NC(Cc2ccccc2)C(=O)C(N)=O)c1F (centres unmarked) [Compound 368, N-(4-amino-3,4-dioxo-1-phenylbutan-2-yl)-4-(2-fluoro-3-methylphenyl)-1,2,5-thiadiazole-3-carboxamide]					< 3	< 3	< 10	< 3
NC(=O)C(=O)C(Cc1ccccc1)NC(=O)[C@@H]1CC2(CC2)CN1c1ccccc1 (stereo partly drawn) [Compound 411, (6S)—N-(4-amino-3,4-dioxo-1-phenylbutan-2-yl)-5-phenyl-5-azaspiro[2.4]heptane-6-carboxamide]					< 3	< 3	10 to 25	< 3
NC(=O)C(=O)C(Cc1ccccc1)NC(=O)c1cn(C2CC2)nc1-c1ccc(C(F)(F)F)nc1 (centres unmarked) [Compound 414, N-(4-amino-3,4-dioxo-1-phenylbutan-2-yl)-1-cyclopropyl-3-(6-(trifluoromethyl)pyridin-3-yl)-1H-pyrazole-4-carboxamide]					< 3	< 3	> 25	< 3
Cc1cc(C(=O)NC(Cc2ccccc2)C(O)C(N)=O)n(-c2ccnc(Cl)n2)n1 (centres unmarked) [Compound 434, N-(4-amino-3-hydroxy-4-oxo-1-phenylbutan-2-yl)-1-(2-chloropyrimidin-4-yl)-3-methyl-1H-pyrazole-5-carboxamide]					> 10	> 10	> 25	> 10
O=C(NC1CC1)C(=O)C(Cc1ccccc1)NC(=O)c1cc(Cl)nn1-c1ncccn1 (centres unmarked) [Compound 457, 3-chloro-N-(4-(cyclopropylamino)-3,4-dioxo-1-phenylbutan-2-yl)-1-(pyrimidin-2-yl)-1H-pyrazole-5-carboxamide]					< 3	< 3	< 10	3 to 10
Cc1nc(C(=O)NC(Cc2ccccc2)C(=O)C(N)=O)c(-c2ccccc2)o1 (centres unmarked) [Compound 494, N-(4-amino-3,4-dioxo-1-phenylbutan-2-yl)-2-methyl-5-phenyloxazole-4-carboxamide]					< 3	< 3	> 25	< 3
